In PubChem BioAssay (NCI):
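Five compound concentrations were applied to cells in 96-well plates for 48 hours; endpoints were derived by simple linear interpolation of the resulting dose-response curve. GI50 marks 50% less growth. TGI is the concentration that stops growth completely.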

Key:
Experiment in all cases: NCI anticancer screen, dose series, 48 h
HOP-62 NSCLC = system: HOP-62 NSCLC
SNB-19 CNS = system: SNB-19 CNS
MALME-3M melanoma = system: MALME-3M melanoma
MDA-MB-231 breast = system: MDA-MB-231 breast
A498 renal = system: A498 renal
HCT-116 colon = system: HCT-116 colon
HS 578T breast = system: HS 578T breast
TK-10 renal = system: TK-10 renal
OVCAR-3 ovarian = system: OVCAR-3 ovarian
RXF 393 renal = system: RXF 393 renal
SK-MEL-28 melanoma = system: SK-MEL-28 melanoma
HT29 colon = system: HT29 colon
RPMI-8226 leukemia = system: RPMI-8226 leukemia
SW-620 colon = system: SW-620 colon
UO-31 renal = system: UO-31 renal
M14 melanoma = system: M14 melanoma
OVCAR-4 ovarian = system: OVCAR-4 ovarian
MDA-MB-435 = system: MDA-MB-435
SR leukemia = system: SR leukemia
IGROV1 ovarian = system: IGROV1 ovarian
SNB-75 CNS = system: SNB-75 CNS
HL-60(TB) leukemia = system: HL-60(TB) leukemia
SK-MEL-2 melanoma = system: SK-MEL-2 melanoma
BT-549 breast = system: BT-549 breast
DU-145 prostate = system: DU-145 prostate
SK-MEL-5 melanoma = system: SK-MEL-5 melanoma
HCT-15 colon = system: HCT-15 colon
NCI/ADR-RES ovarian = system: NCI/ADR-RES ovarian
LOX IMVI melanoma = system: LOX IMVI melanoma
K-562 leukemia = system: K-562 leukemia
U251 CNS = system: U251 CNS
HOP-92 NSCLC = system: HOP-92 NSCLC
UACC-257 melanoma = system: UACC-257 melanoma
SF-268 CNS = system: SF-268 CNS
A549 NSCLC = system: A549 NSCLC
NCI-H522 lung = system: NCI-H522 lung
786-0 renal = system: 786-0 renal
COLO 205 colon = system: COLO 205 colon
ACHN renal = system: ACHN renal
MOLT-4 leukemia = system: MOLT-4 leukemia
PC-3 prostate = system: PC-3 prostate
SF-295 CNS = system: SF-295 CNS
OVCAR-8 ovarian = system: OVCAR-8 ovarian
NCI-H460 lung = system: NCI-H460 lung
SF-539 CNS = system: SF-539 CNS
CAKI-1 renal = system: CAKI-1 renal
MCF7 breast = system: MCF7 breast
NCI-H226 lung = system: NCI-H226 lung
EKVX NSCLC = system: EKVX NSCLC
SK-OV-3 ovarian = system: SK-OV-3 ovarian
CCRF-CEM leukemia = system: CCRF-CEM leukemia
HCC-2998 colon = system: HCC-2998 colon
NCI-H23 lung = system: NCI-H23 lung
SN12C renal = system: SN12C renal
UACC-62 melanoma = system: UACC-62 melanoma
OVCAR-5 ovarian = system: OVCAR-5 ovarian

SMILES: CC/C=C\C[C@H]1C/C=C2/C(=O)C=C[C@H]2C/C=C\CCCC(=O)O1
- GI50 (HOP-62 NSCLC): 2090 nM
- TGI (HOP-62 NSCLC): 7.72 µM
- GI50 (SNB-19 CNS): 5.17 µM
- TGI (SNB-19 CNS): 11.2 µM
- GI50 (MALME-3M melanoma): 7.81 µM
- TGI (MALME-3M melanoma): 17.4 µM
- GI50 (MDA-MB-231 breast): 3.23 µM
- TGI (MDA-MB-231 breast): 14.8 µM
- GI50 (A498 renal): 7.21 µM
- TGI (A498 renal): 14.4 µM
- GI50 (HCT-116 colon): 1000 nM
- TGI (HCT-116 colon): 2550 nM
- GI50 (HS 578T breast): 10.3 µM
- TGI (HS 578T breast): > 50 µM
- GI50 (TK-10 renal): 2540 nM
- TGI (TK-10 renal): 8.01 µM
- GI50 (OVCAR-3 ovarian): 1650 nM
- TGI (OVCAR-3 ovarian): 5.94 µM
- GI50 (RXF 393 renal): 1910 nM
- TGI (RXF 393 renal): 8.01 µM
- GI50 (SK-MEL-28 melanoma): 3.1 µM
- TGI (SK-MEL-28 melanoma): 11.4 µM
- GI50 (HT29 colon): 1850 nM
- TGI (HT29 colon): 6.15 µM
- GI50 (RPMI-8226 leukemia): 1590 nM
- TGI (RPMI-8226 leukemia): 4.82 µM
- GI50 (SW-620 colon): 2580 nM
- TGI (SW-620 colon): 10.4 µM
- GI50 (UO-31 renal): 4.87 µM
- TGI (UO-31 renal): 11.2 µM
- GI50 (M14 melanoma): 1690 nM
- TGI (M14 melanoma): 8.34 µM
- GI50 (OVCAR-4 ovarian): 2810 nM
- TGI (OVCAR-4 ovarian): 9.73 µM
- GI50 (MDA-MB-435): 1660 nM
- TGI (MDA-MB-435): 6.04 µM
- GI50 (SR leukemia): 1340 nM
- TGI (SR leukemia): 21.8 µM
- GI50 (IGROV1 ovarian): 2660 nM
- TGI (IGROV1 ovarian): 8.99 µM
- GI50 (SNB-75 CNS): 1560 nM
- TGI (SNB-75 CNS): 8.74 µM
- GI50 (HL-60(TB) leukemia): 1740 nM
- TGI (HL-60(TB) leukemia): 12 µM
- GI50 (SK-MEL-2 melanoma): 3.77 µM
- TGI (SK-MEL-2 melanoma): 12.6 µM
- GI50 (BT-549 breast): 2520 nM
- TGI (BT-549 breast): 9.29 µM
- GI50 (DU-145 prostate): 1900 nM
- TGI (DU-145 prostate): 7.39 µM
- GI50 (SK-MEL-5 melanoma): 1740 nM
- TGI (SK-MEL-5 melanoma): 7.27 µM
- GI50 (HCT-15 colon): 1500 nM
- TGI (HCT-15 colon): 7.04 µM
- GI50 (NCI/ADR-RES ovarian): 1470 nM
- TGI (NCI/ADR-RES ovarian): > 50 µM
- GI50 (LOX IMVI melanoma): 1680 nM
- TGI (LOX IMVI melanoma): 6.7 µM
- GI50 (K-562 leukemia): 1890 nM
- TGI (K-562 leukemia): > 50 µM
- GI50 (U251 CNS): 1950 nM
- TGI (U251 CNS): 7.09 µM
- GI50 (HOP-92 NSCLC): 2530 nM
- TGI (HOP-92 NSCLC): 10.1 µM
- GI50 (UACC-257 melanoma): 5.04 µM
- TGI (UACC-257 melanoma): 12 µM
- GI50 (SF-268 CNS): 3.77 µM
- TGI (SF-268 CNS): 17.8 µM
- GI50 (A549 NSCLC): 2660 nM
- TGI (A549 NSCLC): 10.3 µM
- GI50 (NCI-H522 lung): 1980 nM
- TGI (NCI-H522 lung): 7.21 µM
- GI50 (786-0 renal): 3.24 µM
- TGI (786-0 renal): 10.2 µM
- GI50 (COLO 205 colon): 1870 nM
- TGI (COLO 205 colon): 6.7 µM
- GI50 (ACHN renal): 1390 nM
- TGI (ACHN renal): 3.97 µM
- GI50 (MOLT-4 leukemia): 1840 nM
- TGI (MOLT-4 leukemia): 25.1 µM
- GI50 (PC-3 prostate): 3.13 µM
- TGI (PC-3 prostate): 12.1 µM
- GI50 (SF-295 CNS): 2620 nM
- TGI (SF-295 CNS): 9.33 µM
- GI50 (OVCAR-8 ovarian): 2000 nM
- TGI (OVCAR-8 ovarian): 11.7 µM
- GI50 (NCI-H460 lung): 2920 nM
- TGI (NCI-H460 lung): 14.5 µM
- GI50 (SF-539 CNS): 2070 nM
- TGI (SF-539 CNS): 8.16 µM
- GI50 (CAKI-1 renal): 2290 nM
- TGI (CAKI-1 renal): 8.23 µM
- GI50 (MCF7 breast): 2210 nM
- TGI (MCF7 breast): 12.4 µM
- GI50 (NCI-H226 lung): 3.4 µM
- TGI (NCI-H226 lung): 10.8 µM
- GI50 (EKVX NSCLC): 4.89 µM
- TGI (EKVX NSCLC): 15.7 µM
- GI50 (SK-OV-3 ovarian): 5.67 µM
- TGI (SK-OV-3 ovarian): 13.1 µM
- GI50 (CCRF-CEM leukemia): 1670 nM
- TGI (CCRF-CEM leukemia): 15.3 µM
- GI50 (HCC-2998 colon): 2370 nM
- TGI (HCC-2998 colon): 8.43 µM
- GI50 (NCI-H23 lung): 2150 nM
- TGI (NCI-H23 lung): 9.92 µM
- GI50 (SN12C renal): 2620 nM
- TGI (SN12C renal): > 50 µM
- GI50 (UACC-62 melanoma): 1780 nM
- TGI (UACC-62 melanoma): 7.94 µM
- GI50 (OVCAR-5 ovarian): 3.99 µM
- TGI (OVCAR-5 ovarian): 16.8 µM
